Patent publication US9409892B2, “4-hydroxy-isoquinoline compounds as HIF hydroxylase inhibitors” (FIBROGEN, INC., priority 2012, dated 2016)
Like-named read-outs stand apart in the source and are kept apart here.

Experiments:
PHD1 (EGLN2) = PHD1 (EGLN2) (Homo sapiens (Human), UniProt Q96KS0); assay: HIF-PH assay (14CO2 capture), PHD1 enzyme inhibition; assay type: biochemical; conditions: for IC50: read-out: IC50 (μM) PHD1
PHD2 (EGLN1) = PHD2 (EGLN1) (Homo sapiens (Human), UniProt Q9GZT9); assay: HIF-PH assay (14CO2 capture), PHD2 enzyme inhibition; assay type: biochemical; conditions: Table 1; individual measurement; read-out: IC50 (μM) PHD2
[1] = Table 1, individual measurement
[2] = Table 1, ratio of the IC50 of the compound for each enzyme

PHD2 (EGLN1), sequence (Q9GZT9 whole entry): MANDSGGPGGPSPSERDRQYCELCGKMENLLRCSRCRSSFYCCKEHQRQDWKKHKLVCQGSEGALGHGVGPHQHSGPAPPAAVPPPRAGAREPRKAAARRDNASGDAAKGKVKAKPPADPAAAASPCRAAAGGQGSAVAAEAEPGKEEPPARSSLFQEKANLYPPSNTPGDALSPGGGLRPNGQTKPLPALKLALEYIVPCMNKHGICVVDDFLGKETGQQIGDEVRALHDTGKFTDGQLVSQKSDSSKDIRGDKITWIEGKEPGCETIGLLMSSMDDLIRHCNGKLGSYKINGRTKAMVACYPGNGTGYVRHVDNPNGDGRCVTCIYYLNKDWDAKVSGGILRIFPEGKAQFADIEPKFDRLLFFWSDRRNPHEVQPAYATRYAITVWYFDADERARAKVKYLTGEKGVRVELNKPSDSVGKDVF
PHD1 (EGLN2), sequence (Q96KS0 whole entry): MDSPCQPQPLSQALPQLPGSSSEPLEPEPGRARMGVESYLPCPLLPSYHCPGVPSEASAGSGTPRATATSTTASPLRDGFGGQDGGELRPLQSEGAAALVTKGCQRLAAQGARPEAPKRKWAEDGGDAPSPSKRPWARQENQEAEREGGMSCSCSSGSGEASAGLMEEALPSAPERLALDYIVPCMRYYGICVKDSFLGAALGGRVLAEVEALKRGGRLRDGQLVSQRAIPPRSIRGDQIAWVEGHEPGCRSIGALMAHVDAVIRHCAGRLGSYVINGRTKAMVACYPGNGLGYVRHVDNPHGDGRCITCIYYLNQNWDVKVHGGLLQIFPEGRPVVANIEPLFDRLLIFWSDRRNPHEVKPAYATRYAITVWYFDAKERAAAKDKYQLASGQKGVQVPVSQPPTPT

Structure (SMILES)	IC50 (PHD1 (EGLN2); [1])	PHD2/PHD1 (PHD1 (EGLN2); [2])	IC50 (PHD2 (EGLN1))	PHD2/PHD1 (PHD1 (EGLN2))	IC50 (PHD1 (EGLN2))	PHD2/PHD1 (PHD1 (EGLN2); Table 2 comparative data, IC50 PHD2/IC50 PHD1)
CC(C)(CNC(=O)c1nc(C#N)c2cc(Oc3ccc(F)cc3Cl)ccc2c1O)C(=O)O [Compound 99, 3-{[7-(2-Chloro-4-fluoro-phenoxy)-1-cyano-4-hydroxy-isoquinoline-3-carbonyl]-amino}-2,2-dimethyl-propionic acid]	0.29 µM	19	5.55 µM			
COc1ccc(Oc2ccc3c(O)c(C(=O)NC(C)(C)CC(=O)O)nc(C#N)c3c2)cc1 [Compound 21, 3{-[1-Cyano-4-hydroxy-7-(4-methoxy-phenoxy)-isoquinoline-3-carbonyl]-amino}-3-methyl-butyric acid]	0.24 µM	39	9.4 µM			
CC(C)C(CC(=O)O)NC(=O)c1nc(C#N)c2cc(Oc3ccccc3)ccc2c1O (stereo not shown) [Compound 61, 3-[(1-Cyano-4-hydroxy-7-phenoxy-isoquinoline-3-carbonyl)-amino]-4-methyl-pentanoic acid]			> 200 µM	6	33.3 µM	
CN(C)C(=O)N[C@H](CCNC(=O)c1nc(C#N)c2cc(Oc3ccccc3)ccc2c1O)C(=O)O [Compound 54, (R)-4-(1-Cyano-4-hydroxy-7-phenoxyisoquinoline-3-carboxamido)-2-(3,3-dimethylureido)butanoic acid]	1.81 µM	6.1	11 µM			
CC(C)(CNC(=O)c1ncc2cc(-c3ccc(F)cc3)ccc2c1O)C(=O)O [Compound 150, 3-{[7-(4-Fluoro-phenyl)-4-hydroxy-isoquinoline-3-carbonyl]-amino}-2,2-dimethyl-propionic acid]	22.9 µM	5	114 µM			
O=C(O)CCNC(=O)c1ncc2cc(NC(=O)Nc3ccc(F)cc3)ccc2c1O [Compound 141, 3-({7-[3-(4-Fluoro-phenyl)-ureido]-4-hydroxy-isoquinoline-3-carbonyl}-amino)-propionic acid]	3 µM	13	37.8 µM			
O=C(NCC1(C(=O)O)CCC1)c1ncc2cc(Oc3ccccc3)ccc2c1O [Compound 13, 1-{[(4-Hydroxy-7-phenoxy-isoquinoline-3-carbonyl)-amino]-methyl}-cyclobutanecarboxylic acid]	5.51 µM	7	40.8 µM			
Cc1cccc(C)c1Oc1ccc2c(C#N)nc(C(=O)NCCCCC(=O)O)c(O)c2c1 [Compound 111, 5-{[1-Cyano-6-(2,6-dimethyl-phenoxy)-4-hydroxy-isoquinoline-3-carbonyl]-amino}-pentanoic acid]	10.5 µM	11	112 µM			
N#Cc1nc(C(=O)NCCC(=O)O)c(O)c2ccc(Oc3ccc(F)cc3Cl)cc12 [Compound 97, 3-{[7-(2-Chloro-4-fluoro-phenoxy)-1-cyano-4-hydroxy-isoquinoline-3-carbonyl]-amino}-propionic acid]	1.3 µM	6	7.43 µM			
O=C(O)CCNC(=O)c1ncc2cc(Oc3cccnc3)ccc2c1O [Compound 24, 3-{[4-Hydroxy-7-(pyridin-3-yloxy)-isoquinoline-3-carbonyl]-amino}-propionic acid]	2.31 µM	10	23.3 µM			10
O=C(O)CCCCNC(=O)c1ncc2cc(Nc3ccccc3)ccc2c1O [Compound 124, 5-[(4-Hydroxy-7-phenylamino-isoquinoline-3-carbonyl)-amino]-pentanoic acid]	25.4 µM	8	200 µM			
COc1ccc(Oc2ccc3c(O)c(C(=O)NCCCCC(=O)O)ncc3c2)cc1 [Compound 105, 5-{[4-Hydroxy-7-(4-methoxy-phenoxy)-isoquinoline-3-carbonyl]-amino}-pentanoic acid]	2.3 µM	6	13.4 µM			
CC(C)CC(CNC(=O)c1nc(C#N)c2cc(Oc3ccccc3)ccc2c1O)CC(=O)O (stereo not shown) [Compound 183, 3-{[(1-Cyano-4-hydroxy-7-phenoxy-isoquinoline-3-carbonyl)-amino]-methyl}-5-methyl-hexanoic acid]	1.63 µM	8	12.6 µM			
CC(C)(CC(=O)O)NC(=O)c1nc(C#N)c2cc(Oc3ccc(F)cc3)ccc2c1O [Compound 102, 3{-[1-Cyano-7-(4-fluoro-phenoxy)-4-hydroxy-isoquinoline-3-carbonyl]-amino}-3-methyl-butyric acid]	0.53 µM	16	8.5 µM			
Cn1nc(C(F)(F)F)cc1-c1nc(C(=O)NCC(C)(C)C(=O)O)c(O)c2ccc(Oc3ccccc3)cc12 [Compound 151, 3-{[4-Hydroxy-1-(2-methyl-5-trilluoromethyl-2H-pyrazol-3-yl)-7-phenoxy-isoquinoline-3-carbonyl]-amino}-2,2-dimethyl-propionic acid]	12.8 µM	9	111 µM			
C[C@H](NC(=O)c1nc(C#N)c2cc(Oc3ccccc3)ccc2c1O)[C@H](C)C(=O)O [Compound 71, (2S,3S)-3-[(1-Cyano-4-hydroxy-7-phenoxy-isoquinoline-3-carbonyl)-amino]-2-methyl-butyric acid]	2.77 µM	39	107 µM			
N#Cc1nc(C(=O)N[C@H](Cc2ccccc2)[C@H](O)C(=O)O)c(O)c2ccc(Oc3ccccc3)cc12 [Compound 74, (2S,3R)-3-(1-Cyano-4-hydroxy-7-phenoxyisoquinoline-3-carboxamido)-2-hydroxy-4-phenylbutanoic acid]	1.55 µM	5	7.64 µM			
CC(C)(C)OC(=O)N1CCC(CC(=O)O)(NC(=O)c2nc(C#N)c3cc(Oc4ccccc4)ccc3c2O)CC1 [Compound 96, 4-Carboxymethyl-4-[(1-cyano-4-hydroxy-7-phenoxy-isoquinoline-3-carbonyl)-amino]-piperidine-1-carboxylic acid tert-butyl ester]	11.3 µM	14	158 µM			
CC(C)(CNC(=O)c1ncc2cc(Oc3ccc(Cl)c(F)c3)ccc2c1O)C(=O)O [Compound 23, 3-{[7-(4-Chloro-3-fluoro-phenoxy)-4-hydroxy-isoquinoline-3-carbonyl]-amino}-2,2-dimethyl-propionic acid]	2.77 µM	5	12.7 µM			
COc1ccc(CNc2ccc3c(O)c(C(=O)NCCCCC(=O)O)ncc3c2)cc1 [Compound 125, 5-{[4-Hydroxy-7-(4-methoxy-benzylamino)-isoquinoline-3-carbonyl]-amino}-pentanoic acid]	7.92 µM	20	158 µM			
C[C@@H](CNC(=O)c1nc(C#N)c2cc(Oc3ccccc3)ccc2c1O)C(=O)O [Compound 93, 3-[(1-Cyano-4-hydroxy-7-phenoxy-isoquinoline-3-carbonyl)-amino]-2-(S)-methyl-propionic acid]	0.16 µM	15	2.4 µM			
N#Cc1nc(C(=O)NC(CC(=O)O)c2ccc(Cl)cc2)c(O)c2ccc(Oc3ccccc3)cc12 (stereo not shown) [Compound 173, 3-(4-Chloro-phenyl)-3-[(1-cyano-4-hydroxy-7-phenoxy-isoquinoline-3-carbonyl)-amino]-propionic acid]	3.97 µM	5	20.9 µM			
